Entries after “also recorded” stand apart in the source; their conditions may differ.
How the values were obtained:
HeLa cells = experiment: Apoptosis by annexin-V-FITC/PI flow cytometry; assay type: cell-based, human
Method: Surface exposure of phosphatidylserine on apoptotic cells was measured by flow cytometry with a Beckman Coulter Cytomics FC500 (Beckman Coulter Italia, Milano, Italy) by adding annexin-V conjugated to fluorescein isothiocyanate (FITC) to cells according to the manufacturer’s instructions (Annexin-V Fluos, Roche Diagnostic, Monza, Italy). Simultaneously, the cells were stained with PI. Excitation was set at 488 nm, and the emission filters were at 525 and 585 nm, respectively, for FITC and PI.

quiescent PBLs = experiment: Cytotoxicity in human PBLs, resting; assay type: cell-based; details: PBL not stimulated with PHA; 72 h; read-out: IC50 PBLresting
Source text: Human PBLs were obtained from healthy donors by separation on a Lymphoprep^TM (Serumwerk Bernburg AG) gradient and were used for the evaluation of the cytotoxic potential of compounds under study in normal human cells. Buffy coats were obtained from the Blood Transfusion Service, Azienda Ospedaliera of Padova and provided at this institution for research purposes without identifier. The samples were not obtained specifically for this study, and for this reason ethical approval was not required. Informed consent was obtained from blood donors according to Italian law no. 219 (21 October 2005). Data were treated by the Blood Transfusion Service according to Italian law on personal data management “Codice in materia di protezione dati personali” (Testo Unico D.L. Giugno 30, 2003 196).
After extensive washing with saline solution (BioConcept, Hank’s Buffered Saline Solution), quiescent PBLs were resuspended (1.0 × 10^6 cells/mL) in RPMI-1640 medium supplemented with 10% fetal bovine serum. Cytotoxicity evaluations were conducted also in cultures of proliferating PBLs, stimulated with […] PHA (Irvine Scientific). Both resting and proliferating lymphocytes were seeded in 96-well plates and maintained overnight at 37 °C in a humidified 5% CO2 incubator. Serial (5-fold) dilutions of the tested compounds were added, and viability was determined 72 h later by the resazurin viability assay as described above.

[1] = test system: HeLa cells in zebrafish Tg(fli1: EGFP) embryos; experiment: Zebrafish xenograft model with HeLa cells; assay type: in vivo, Danio rerio; details: 145 or 290 nM, 24 h, 34 °C; p 0.04 and 0.01
Method: For the transplantation, zebrafish Tg(fli1: EGFP) embryos expressing enhanced green fluorescent protein (EGFP) specifically in vascular endothelial cells, were kept at 28 °C and manually dechorionated. Before microinjections into zebrafish embryos, HeLa cancer cells were stained with VybrantTM DiI Cell-Labeling Solution (Invitrogen, ThermoFisher, Carlsbad, CA, USA) according to the manufacturer’s protocol, in order to visualize and track them inside the larvae. Stained cells (1.0 × 10^6 cells) were suspended in 20 μL of PBS 1X obtaining a final concentration of 50 cells/nL; next, the cellular suspension was loaded into borosilicate glass capillary needles (OD/ID: 1.00/0.75 mm, World Precision Instruments, Sarasota, FL, USA). […]
Initially (time 0 h pre-treatment) and after one day post-treatment, the tumors were photographed with a Zeiss AxioObserver microscope for live-cell imaging. HeLa cell fluorescence was recorded to investigate reduction, death and migration of tumor cells. Using Fiji ImageJ software, the reduction in cancer cell fluorescence, related to the effectiveness of the anticancer drug treatments, was calculated and plotted. The fluorescence of at least 20 identically treated embryos was compared to vehicle control set to 100%.

SMILES: Cc1cc(Nc2ccc(F)cc2)n2nc(NCCCc3ccccc3)nc2n1 [Compound 8q]
- concentration from which apoptosis was induced (HeLa cells): 50 nM
- IC50 (quiescent PBLs): > 10 µM
- HeLa tumor cells / fluorescence in zebrafish xenograft [1]: significantly inhibited HeLa cell growth in zebrafish embryos; also recorded: number of circulating tumor cells was significantly reduced; also recorded: fluorescence intensity decreased in a dose-dependent manner; also recorded: reduced HeLa cell growth in xenografts implanted in zebrafish embryos

— paper PMC9230136 (Pharmaceutics, 2022)
